Test results reported in patent publication US6884776B1, “Antimicrobial peptides derived from ubiquicidine” (priority 1997, dated 2005).
Where no end group is shown, it is not given here.

Key:
[1] = localization of 99mTc-labelled peptides with γ-camera in mice infected with Staphylococcus aureus or with sterile inflammations; assay type: in vivo; settings: target to non-target ratios, FIG. 13
Protocol: Mice were infected intramuscularly with about 10^6 Staphylococcus aureus bacteria (ATCC 25923) and subsequently injected intraperitoneally with 25 μg ^99mTc-peptide. Mice were also injected intramuscularly with about 1×10^8 heat-killed (1 hour, 100° C.)S. aureus, 1 μg endotoxin or 100 ng phorbol myristate acetate (PMA) in order to cause sterile inflammations. At different points in time after injection of the peptide the radioactivity was measured in the circulation (heart), determined organs (liver, kidney, bladder and spleen) and in both thigh muscles using a γ-camera.
(§1) Mice were infected in the right thigh muscle with Klebsiella pneumoniae and 25 μg ^99mTc-labelled ubiquicidine (1-18) or ubiquicidine (18-35) was subsequently injected intraperitoneally. At different points in time after injection of the peptide the amount of activity in the right (test) and left (control) thigh muscle of the mouse was measured using a γ-camera. The results are shown in FIG. 12 as a ratio of the values in the right thigh muscle and the left thigh muscle, i.e. “target to non-target ratio”. For the purpose of comparison the results for human defensin and IgG are also shown. The target to non-target ratios for infections and sterile inflammations were also compared (FIG. 13).

[2] = parameters: species or system mice; settings: mouse, in vivo
Protocol: Reference is made to FIG. 11 for a schematic view of the experimental infection and treatment of the mice. In summary, mice-were infected intramuscularly in the right thigh muscle with about 10^6 bacteria and after 5 minutes injected intraperitoneally with about 25 μg (labelled) peptide. At different points in time after injection of the peptide the animals were killed and the right thigh muscle was removed, homogenized, and finally the number of bacteria in the homogenate was determined using microbiological plate techniques, or accumulation of the labelled peptide was determined by means of a γ-camera. This test involved animals which were normal and immunocompromised (injection with cyclophosphamide, “total body” radiation).
as §1

[3] = in vivo; cited from earlier work
micro-organisms = experiment: growth-killing test / in vitro antimicrobial action (IC 99%); assay type: cell-based
Excerpt: Peptide fragments derived from ubiquicidine comprise a preferably continuous series of at least 3, preferably at least 8 amino acids from the amino acid sequence of ubiquicidine as shown in FIG. 1. For an average skilled person it is simple to ascertain whether a peptide fragment with a series of preferably continuous amino acids chosen from the amino acid sequence of ubiquicidine does actually have antimicrobial activity and thus meets the requirements of the invention. A simple standard test for determining antimicrobial activity is for instance the universally known growth-killing test, i.e. determining of the concentration of an antimicrobial agent which kills 99% of the micro-organisms (IC 99%). Designated by “peptide (fragments)” in this application are therefore all amino acid chains which are smaller than the ubiquicidine itself, but the amino acid sequence of which is to be found, preferably continuously, in the ubiquicidine. The length of such peptide (fragments) can vary from 3 to 58 amino acids, wherein possible extra amino acids added as modification are not included.
(§2) Different techniques were used to test for the antimicrobial activity of ubiquicidine and peptides derived therefrom.

Klebsiella pneumoniae = experiment: growth-killing curve determination, 60 minutes at 37° C., CFU; assay type: cell-based
Protocol: as §2
(§3) In the control incubations the bacteria multiplied a number of times (not shown).
(§4) Peptides were prepared using an Abimed AMS multiple peptide synthesizer and a fixed phase (tentagel AC, a polymer of polyethylene glycol spacer linked to a polystyrene matrix) (de Koster et al. (1995) J. Immunol. Methods 187:179-188). After completion of the synthesis the peptide was released from the fixed phase using a trifluoroacetic acid water(19:1) mixture and the peptides were subsequently precipitated with an ether pentane(1:1) mixture at […]. After centrifugation the obtained pep-tides were dried at 40° C. for 15 minutes. The peptides were subsequently dissolved in 10% acetic acid and concentrated by means of vacuum centrifugation. The purity of the peptides was determined using HPLC. The antimicrobial activity of these peptide fragments was determined as described in Example 1 under 2.3.

Staphylococcus aureus = experiment: as above; assay type: cell-based
Protocol: as §2, §3, §4

For “99mTc-labelled ubiquicidine 18-35: MAG3-derived ubiquicidine (18-35) labelled with the emitter 99mTc (hybrid molecule) (KVAKQEKKKKKTGRAKRR; also: MAG3 chelator conjugated, site not given here, 99mTc label; UniProt P62861 92-109, looked up, fragment)”, the “accumulation in infection versus sterile inflammations” value [1] was “in a nidus but not in inflammations” and the “time to maximum accumulation compared with IgG” value [2] was “much sooner than ^99Tc-IgG”.
In the case of [67Ga] [gallium 67], the “time needed for accumulation” value [3] is listed as “at least 24 hours”.
For “KVAKQEKKKKKTGRAKRR [ubiquicidine (18-35)]”, the “accumulation in the infected thigh muscle” value [2] was “accumulate rapidly”.
With “KVHGSLARAGKVRGQTPK [ubiquicidine (1-18)]” the “accumulation in the infected thigh muscle” value [2] was “accumulate rapidly”.
For “^99Tc-ubiquicidine (1-18): ubiquicidine (1-18) labelled with technetium 99m (KVHGSLARAGKVRGQTPK; also: labelled with 99mTc, site not given here; UniProt P62861 75-92, looked up, fragment)”, the “time to maximum accumulation compared with IgG” value [2] was “much sooner than ^99Tc-IgG”.
With “ubiquicidine (29-41): synthetic peptide fragment of ubiquicidine, amino acids 29-41, sequence in FIG. 1 (TGRAKRRMQYNRR; Small ribosomal subunit protein eS30; UniProt P62861 103-115, looked up, fragment)” the “IC 99% (concentration which kills 99% of the micro-organisms)” value (micro-organisms) was “around 1 μM”, the “antimicrobial activity of peptide fragments” value (Klebsiella pneumoniae) was “demonstrated antimicrobial activity” and the “antimicrobial activity of peptide fragments” value (Staphylococcus aureus) was “demonstrated antimicrobial activity”.
